Test results published in patent US20250281419A1, “LIPID AMINES” (ModernaTX, Inc., priority 2021, published 2025).

Test system: HeLa cells
Experiment: CFTR protein expression assay in HeLa cells (LNPs of Example 2, immunofluorescence)
Format: cell-based, Human
Details: compared to buffer (PBS) control, 5 h transfection, 24 h incubation, N=4 wells
Description: Lipid nanoparticles were prepared using ethanol drop nanoprecipitation followed by solvent exchange into suitable aqueous buffer using dialysis. An exemplary lipid nanoparticle composition can be prepared by a process where lipids are dissolved in ethanol at a concentration of 12.5 mM and molar ratios of 33:15:11:39.5:1.5 (e.g., ionizable lipid:SA46:phospholipid:cholesterol:PL1). Lipid to mRNA is maintained at a N/P ratio of 4.9. Then mRNA is diluted with 25 mM sodium acetate (pH 5.0) and combined with the lipid mixture at a volume ratio of 3:1 (aqueous: ethanol). Resulting formulations are dialyzed against 20 mM tris/8% sucrose/70 mM sodium chloride (pH 7.4) at a volume of 300 times that of the primary product using Slide-A-Lyzer dialysis cassettes (Thermo Scientific, Rockford, IL, USA) with a molecular cutoff of 10 KDa for at least 18 h. The first dialysis is carried out at room temperature in a digital orbital shaker (VWR, Radnor, PA, USA) at 85 rpm for 3 h and then dialyzed overnight at 4° C. Formulations are concentrated using Amicon ultra-centrifugal filters (EMD Millipore, Billerica, MA, USA), passed through a 0.22-μm filter and stored at 4° C. until use. Lipid nanoparticle solutions are typically adjusted to specific mRNA concentrations between 0.1 and 1 mg/mL. LNPs were prepared according to Example 2. To evaluate LNP cellular uptake and protein expression in vitro, HeLa cells from ATCC.org (ATCC CCL-2) are used. The cells are cultured in complete Minimum Essential Medium (MEM) and are plated in 96 well Cell Carrier Ultra plate with PDL coated surface (PerkinElmer) prior to running an experiment. Buffer control (PBS) and LNPs encapsulating cystic fibrosis transmembrane conductance regulator (CFTR) mRNA were dosed with MEM media in the absence of serum (N=4 replicate wells). LNP transfected cells were incubated for 5 h, followed by media removal and supplementation with complete MEM media. Cells were further incubated in complete MEM media overnight (24 h). Following 24 hr incubation, the cells were fixed with PFA and processed for immunofluorescence (IF) using an anti-CFTR rabbit monoclonal antibody. Briefly, the cells were permeabilized with 0.5% TX-100 for 10 min, blocked with 3% bovine serum albumin (BSA)+PBST for 1 hr at room temperature, and incubated with primary anti-CFTR monoclonal antibody overnight at 4° C. Following primary antibody incubation, the cells were incubated with Alexa 488 conjugated secondary antibody for 30 min, and stained with DAPI and HCS CellMask Blue stain. Between different incubation steps the cells were either washed with PBS or PBST. Cells were imaged using Opera Phoenix spinning disk confocal microscope (PerkinElmer), and CFTR protein expression was detected using the 488 nm channel. The image analysis was performed in Harmony 4.9, with main analysis output being CFTR intensity per cell. The results shown in Table 3a show fold-change in CFTR signal intensity per cell compared to buffer (PBS) control (nanoparticle composition: IL1:Lipid Amine:DSPC:Chol:PL1). The results shown in Table 3b show fold-change in CFTR signal intensity per cell compared to buffer (PBS) control (nanoparticle composition: IL1:Lipid Amine:DPPC:Chol:PL1).

[1] = LNP IL1:Lipid Amine:DPPC:Chol:PL1 with CFTR mRNA
[2] = LNP IL1:Lipid Amine:DSPC:Chol:PL1 with CFTR mRNA

CC[C@H](CC[C@@H](C)[C@H]1CC[C@H]2[C@@H]3CC=C4C[C@@H](OC(=O)NCCCN(C)C)CC[C@]4(C)[C@H]3CC[C@]12C)C(C)C [SA46, (3S,8S,9S,10R,13R,14S,17R)-17-((2R,5R)-5-Ethyl-6-methylheptan-2-yl)-10,13-dimethyl-2,3,4,7,8,9,10,11,12,13,14,15,16,17-tetradecahydro-1H-cyclopenta[a]phenanthren-3-yl (3-(dimethylamino)propyl)carbamate]
Average fold-change in CFTR signal intensity per cell ± standard deviation [1]: 10.2 ± 0.2 fold-change
Average fold-change in CFTR signal intensity per cell ± standard deviation [2]: 4.7 ± 0.2 fold-change

CC[C@H](CC[C@@H](C)[C@H]1CC[C@H]2[C@@H]3CC=C4C[C@@H](OC(=O)NCCCCN(C)C)CC[C@]4(C)[C@H]3CC[C@]12C)C(C)C [SA47, (3S,8S,9S,10R,13R,14S,17R)-17-((2R,5R)-5-Ethyl-6-methylheptan-2-yl)-10,13-dimethyl-2,3,4,7,8,9,10,11,12,13,14,15,16,17-tetradecahydro-1H-cyclopenta[a]phenanthren-3-yl (4-(dimethylamino)butyl)carbamate]
Average fold-change in CFTR signal intensity per cell ± standard deviation [1]: 10.9 ± 0.4 fold-change
Average fold-change in CFTR signal intensity per cell ± standard deviation [2]: 4.6 ± 0.4 fold-change

CC[C@H](CC[C@@H](C)[C@H]1CC[C@H]2[C@@H]3CC=C4C[C@@H](OC(=O)NCC(C)(C)N)CC[C@]4(C)[C@H]3CC[C@]12C)C(C)C.Cl [SA55, (3S,8S,9S,10R,13R,14S,17R)-17-((2R,5R)-5-Ethyl-6-methylheptan-2-yl)-10,13-dimethyl-2,3,4,7,8,9,10,11,12,13,14,15,16,17-tetradecahydro-1H-cyclopenta[a]phenanthren-3-yl (2-amino-2-methylpropyl)carbamate Hydrochloride]
Average fold-change in CFTR signal intensity per cell ± standard deviation [1]: 12.1 ± 0.7 fold-change
Average fold-change in CFTR signal intensity per cell ± standard deviation [2]: 4.9 ± 0.2 fold-change

CC[C@H](CC[C@@H](C)[C@H]1CC[C@H]2[C@@H]3CC=C4C[C@@H](OC(=O)NCCN(CCO)CCO)CC[C@]4(C)[C@H]3CC[C@]12C)C(C)C [SA48, (3S,8S,9S,10R,13R,14S,17R)-17-((2R,5R)-5-Ethyl-6-methylheptan-2-yl)-10,13-dimethyl-2,3,4,7,8,9,10,11,12,13,14,15,16,17-tetradecahydro-1H-cyclopenta[a]phenanthren-3-yl (2-(bis(2-hydroxyethyl)amino)ethyl)carbamate]
Average fold-change in CFTR signal intensity per cell ± standard deviation [1]: 5.3 ± 1.0 fold-change
Average fold-change in CFTR signal intensity per cell ± standard deviation [2]: 4.4 ± 0.3 fold-change

CC[C@H](CC[C@@H](C)[C@H]1CC[C@H]2[C@@H]3CC=C4C[C@@H](OC(=O)NCC5(N(C)C)CC5)CC[C@]4(C)[C@H]3CC[C@]12C)C(C)C [SA54, (3S,8S,9S,10R,13R,14S,17R)-17-((2R,5R)-5-Ethyl-6-methylheptan-2-yl)-10,13-dimethyl-2,3,4,7,8,9,10,11,12,13,14,15,16,17-tetradecahydro-1H-cyclopenta[a]phenanthren-3-yl ((1-(dimethylamino)cyclopropyl)methyl)carbamate]
Average fold-change in CFTR signal intensity per cell ± standard deviation [1]: 1.3 ± 0.1 fold-change
Average fold-change in CFTR signal intensity per cell ± standard deviation [2]: 1.5 ± 0.1 fold-change

CC[C@H](CC[C@@H](C)[C@H]1CC[C@H]2[C@@H]3CC=C4C[C@@H](OC(=O)NCC(C)(C)N(C)C)CC[C@]4(C)[C@H]3CC[C@]12C)C(C)C [SA53, (3S,8S,9S,10R,13R,14S,17R)-17-((2R,5R)-5-Ethyl-6-methylheptan-2-yl)-10,13-dimethyl-2,3,4,7,8,9,10,11,12,13,14,15,16,17-tetradecahydro-1H-cyclopenta[a]phenanthren-3-yl (2-(dimethylamino)-2-methylpropyl)carbamate]
Average fold-change in CFTR signal intensity per cell ± standard deviation [1]: 13.0 ± 1.2 fold-change
Average fold-change in CFTR signal intensity per cell ± standard deviation [2]: 4.4 ± 0.8 fold-change

CC[C@H](CC[C@@H](C)[C@H]1CC[C@H]2[C@@H]3CC=C4C[C@@H](OC(=O)NCCOCCN(C)C)CC[C@]4(C)[C@H]3CC[C@]12C)C(C)C [SA49, (3S,8S,9S,10R,13R,14S,17R)-17-((2R,5R)-5-Ethyl-6-methylheptan-2-yl)-10,13-dimethyl-2,3,4,7,8,9,10,11,12,13,14,15,16,17-tetradecahydro-1H-cyclopenta[a]phenanthren-3-yl (2-(2-(dimethylamino)ethoxy)ethyl)carbamate]
Average fold-change in CFTR signal intensity per cell ± standard deviation [1]: 1 ± 0.0 fold-change
Average fold-change in CFTR signal intensity per cell ± standard deviation [2]: 1.1 ± 0.0 fold-change
